According to patent US12630548B2, “Azetidine derivatives for the treatment of integrin associated diseases” (The University of Nottingham, priority 2020, dated 2026):

target: ανβ6 (Homo sapiens, UniProt P06756+P18564); assay: Cell adhesion assay, αvβ6 integrin; type: cell-based; conditions: cell adhesion data; read-out: ανβ6 IC50
Experimental: The assays were performed as described in the literature (P. A. Procopiou, N. A. Anderson, J. Barrett, T. N. Barrett, M. H. J. Crawford, B. J. Fallon, A. P. Hancock, J. Le, S. Lemma, R. P. Marshall, J. Morrell, J. M. Pritchard, J. E. Rowedder, P. Saklatvala, R. J. Slack, S. L. Sollis, C. J. Suckling, L. R. Thorp, G. Vitulli, et al., J. Med. Chem. 2018, 61, 8417-8443; S. B. Ludbrook, S. T. Barry, C. J. Delves, C. M. T. Horgan, Biochem. J. 2003, 369, 311-318).

ανβ6, sequence (P06756 31-889 limits assumed): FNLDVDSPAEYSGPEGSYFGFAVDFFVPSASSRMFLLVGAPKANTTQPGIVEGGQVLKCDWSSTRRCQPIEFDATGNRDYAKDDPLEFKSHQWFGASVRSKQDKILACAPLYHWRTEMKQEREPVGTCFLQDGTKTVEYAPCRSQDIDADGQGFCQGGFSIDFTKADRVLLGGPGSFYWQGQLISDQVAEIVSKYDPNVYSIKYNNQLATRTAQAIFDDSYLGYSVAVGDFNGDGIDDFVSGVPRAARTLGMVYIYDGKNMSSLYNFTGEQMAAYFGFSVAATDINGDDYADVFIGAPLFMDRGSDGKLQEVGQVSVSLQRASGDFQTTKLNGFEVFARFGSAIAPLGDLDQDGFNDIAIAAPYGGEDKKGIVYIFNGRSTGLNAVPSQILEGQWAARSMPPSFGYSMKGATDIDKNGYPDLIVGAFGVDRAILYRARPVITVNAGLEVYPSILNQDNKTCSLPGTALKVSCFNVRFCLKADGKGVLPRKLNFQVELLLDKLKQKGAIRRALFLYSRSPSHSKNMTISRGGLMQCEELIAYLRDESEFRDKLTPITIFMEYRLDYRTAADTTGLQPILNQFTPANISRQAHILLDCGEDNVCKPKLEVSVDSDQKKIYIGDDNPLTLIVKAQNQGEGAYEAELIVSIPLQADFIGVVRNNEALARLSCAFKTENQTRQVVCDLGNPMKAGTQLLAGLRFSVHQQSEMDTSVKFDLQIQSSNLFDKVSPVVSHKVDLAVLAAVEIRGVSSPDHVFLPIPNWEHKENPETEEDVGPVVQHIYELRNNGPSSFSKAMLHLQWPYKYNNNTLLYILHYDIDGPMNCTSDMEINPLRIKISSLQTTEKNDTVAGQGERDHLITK
ανβ6, sequence (P06756 891-1048 limits assumed): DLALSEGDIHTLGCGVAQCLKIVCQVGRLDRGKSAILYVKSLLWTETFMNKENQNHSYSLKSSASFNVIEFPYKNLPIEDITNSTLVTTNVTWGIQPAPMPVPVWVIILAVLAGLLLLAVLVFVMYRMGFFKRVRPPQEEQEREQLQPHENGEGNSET
ανβ6, sequence (P18564 22-788): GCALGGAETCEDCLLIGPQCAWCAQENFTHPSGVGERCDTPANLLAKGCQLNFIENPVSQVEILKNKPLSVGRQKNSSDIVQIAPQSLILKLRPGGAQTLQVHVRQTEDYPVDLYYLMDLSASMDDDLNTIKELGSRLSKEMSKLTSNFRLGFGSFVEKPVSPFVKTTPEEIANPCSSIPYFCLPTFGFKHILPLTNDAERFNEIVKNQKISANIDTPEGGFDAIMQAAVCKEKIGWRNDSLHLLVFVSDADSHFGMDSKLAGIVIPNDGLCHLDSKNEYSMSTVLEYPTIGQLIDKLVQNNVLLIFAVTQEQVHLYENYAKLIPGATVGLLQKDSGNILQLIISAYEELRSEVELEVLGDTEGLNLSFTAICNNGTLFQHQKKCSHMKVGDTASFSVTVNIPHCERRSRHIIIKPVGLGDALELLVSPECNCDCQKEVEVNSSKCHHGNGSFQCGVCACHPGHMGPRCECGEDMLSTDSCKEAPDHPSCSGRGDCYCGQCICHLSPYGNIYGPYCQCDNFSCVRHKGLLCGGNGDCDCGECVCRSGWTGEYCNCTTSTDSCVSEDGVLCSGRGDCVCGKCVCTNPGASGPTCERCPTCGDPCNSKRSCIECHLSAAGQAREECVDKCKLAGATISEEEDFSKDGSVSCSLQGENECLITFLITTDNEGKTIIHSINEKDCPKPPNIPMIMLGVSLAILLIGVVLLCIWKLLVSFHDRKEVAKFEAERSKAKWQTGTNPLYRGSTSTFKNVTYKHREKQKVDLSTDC

Row | SMILES | IC50
1 | Cc1ccc(S(=O)(=O)N2CC(C(=O)NC(CNC(=O)CCCCc3ccc4c(n3)NCCC4)C(=O)O)C2)cc1 (racemic) [Example 1, 3-(5-(5,6,7,8-tetrahydro-1,8-naphthyridin-2-yl)pentanamido)-2-(1-(4-methylbenzenesulfonyl)azetidine-3-carboxamido)propanoic acid] | < 250 nM
2 | O=C(CCCCc1ccc2c(n1)NCCC2)NCC(NC(=O)C1CN(S(=O)(=O)c2ccc(F)cc2)C1)C(=O)O (racemic) [Example 2, 2-(1-(4-fluorobenzenesulfonyl)azetidine-3-carboxamido)-3-(5-(5,6,7,8-tetrahydro-1,8-naphthyridin-2-yl)pentanamido)propanoic acid] | < 250 nM
3 | Cc1ccccc1S(=O)(=O)N1CC(C(=O)NC(CNC(=O)CCCCc2ccc3c(n2)NCCC3)C(=O)O)C1 (racemic) [Example 3, 3-(5-(5,6,7,8-tetrahydro-1,8-naphthyridin-2-yl)pentanamido)-2-(1-(2-methylbenzenesulfonyl)azetidine-3-carboxamido)propanoic acid] | < 250 nM
4 | O=C(CCCCc1ccc2c(n1)NCCC2)NCC(NC(=O)C1CN(S(=O)(=O)c2cccc(C(F)(F)F)c2)C1)C(=O)O (racemic) [Example 7, 3-(5-(5,6,7,8-tetrahydro-1,8-naphthyridin-2-yl)pentanamido)-2-(1-(3-(trifluoromethyl)benzenesulfonyl)azetidine-3-carboxamido)propanoic acid] | < 250 nM
5 | O=C(CCCCc1ccc2c(n1)NCCC2)NCC(NC(=O)C1CN(S(=O)(=O)c2ccccc2)C1)C(=O)O (racemic) [Example 9, 2-(1-(phenylsulfonyl)azetidine-3-carboxamido)-3-(5-(5,6,7,8-tetrahydro-1,8-naphthyridin-2-yl)pentanamido)propanoic acid] | < 250 nM
6 | O=C(CCCCc1ccc2c(n1)NCCC2)NCC(NC(=O)C1CN(S(=O)(=O)c2cc(Cl)cc(Cl)c2)C1)C(=O)O (racemic) [Example 10, 2-(1-(3,5-dichlorobenzenesulfonyl)azetidine-3-carboxamido)-3-(5-(5,6,7,8-tetrahydro-1,8-naphthyridin-2-yl)pentanamido)propanoic acid] | < 250 nM
7 | Cc1cc(C)cc(S(=O)(=O)N2CC(C(=O)NC(CNC(=O)CCCCc3ccc4c(n3)NCCC4)C(=O)O)C2)c1 (racemic) [Example 11, 2-(1-(3,5-dimethylbenzenesulfonyl)azetidine-3-carboxamido)-3-(5-(5,6,7,8-tetrahydro-1,8-naphthyridin-2-yl)pentanamido)propanoic acid] | < 250 nM
8 | CS(=O)(=O)c1cccc(S(=O)(=O)N2CC(C(=O)NC(CNC(=O)CCCCc3ccc4c(n3)NCCC4)C(=O)O)C2)c1 (racemic) [Example 12] | < 250 nM
9 | CCc1cccc(S(=O)(=O)N2CC(C(=O)NC(CNC(=O)CCCCc3ccc4c(n3)NCCC4)C(=O)O)C2)c1 (racemic) [Example 14, 2-(1-(3-ethylbenzenesulfonyl)azetidine-3-carboxamido)-3-(5-(5,6,7,8-tetrahydro-1,8-naphthyridin-2-yl)pentanamido)propanoic acid] | < 250 nM
10 | Cc1cccc(S(=O)(=O)N2CC(F)(C(=O)NC(CNC(=O)CCCCc3ccc4c(n3)NCCC4)C(=O)O)C2)c1 (racemic) [Example 17, 2-(3-fluoro-1-(3-methylbenzenesulfonyl)azetidine-3-carboxamido)-3-(5-(5,6,7,8-tetrahydro-1,8-naphthyridin-2-yl)pentanamido)propanoic acid] | < 250 nM
11 | Cn1cnc(S(=O)(=O)N2CC(C(=O)NC(CNC(=O)CCCCc3ccc4c(n3)NCCC4)C(=O)O)C2)c1 (racemic) [Example 18, 2-(1-((1-methyl-1H-imidazol-4-yl)sulfonyl)azetidine-3-carboxamido)-3-(5-(5,6,7,8-tetrahydro-1,8-naphthyridin-2-yl)pentanamido) propanoic acid] | < 250 nM
12 | Cn1cc(S(=O)(=O)N2CC(C(=O)NC(CNC(=O)CCCCc3ccc4c(n3)NCCC4)C(=O)O)C2)cn1 (racemic) [Example 19, 2-(1-((1-methyl-1H-pyrazol-4-yl)sulfonyl)azetidine-3-carboxamido)-3-(5-(5,6,7,8-tetrahydro-1,8-naphthyridin-2-yl)pentanamido)propanoic acid] | < 250 nM
13 | O=C(CCCCc1ccc2c(n1)NCCC2)NCC(NC(=O)C1CN(S(=O)(=O)c2ccc(Cl)s2)C1)C(=O)O (racemic) [Example 20, 2-(1-((5-chlorothiophen-2-yl)sulfonyl)azetidine-3-carboxamido)-3-(5-(5,6,7,8-tetrahydro-1,8-naphthyridin-2-yl)pentanamido)propanoic acid] | < 250 nM
14 | O=C(CCCCc1ccc2c(n1)NCCC2)NCC(NC(=O)C1CN(S(=O)(=O)c2cccnc2)C1)C(=O)O (racemic) [Example 21, 2-(1-(pyridin-3-ylsulfonyl)azetidine-3-carboxamido)-3-(5-(5,6,7,8-tetrahydro-1,8-naphthyridin-2-yl)pentanamido)propanoic acid] | < 250 nM
15 | O=C(CCCCc1ccc2c(n1)NCCC2)NC[C@H](NC(=O)C1CN(S(=O)(=O)c2cc(Cl)cc(Cl)c2)C1)C(=O)O [Example 23, (S)-2-(1-(3,5-Dichlorobenzenesulfonyl)azetidine-3-carboxamido)-3-(5-(5,6,7,8-tetrahydro-1,8-naphthyridin-2-yl)pentanamido)propanoic acid] | < 250 nM

More lines, now with the values ahead:

Row | IC50 | SMILES
16 | < 250 nM | Cc1cccc(S(=O)(=O)N2CC(C(=O)NC(CNC(=O)CCCCc3ccc4c(n3)NCCC4)C(=O)O)C2)c1 (racemic) [Example 4, 3-(5-(5,6,7,8-tetrahydro-1,8-naphthyridin-2-yl)pentanamido)-2-(1-(3-methylbenzenesulfonyl)azetidine-3-carboxamido)propanoic acid]
17 | < 250 nM | O=C(CCCCc1ccc2c(n1)NCCC2)NCC(NC(=O)C1CN(S(=O)(=O)c2cccc(F)c2)C1)C(=O)O (racemic) [Example 5, 2-(1-(3-fluorobenzenesulfonyl)azetidine-3-carboxamido)-3-(5-(5,6,7,8-tetrahydro-1,8-naphthyridin-2-yl)pentanamido)propanoic acid]
18 | < 250 nM | O=C(CCCCc1ccc2c(n1)NCCC2)NCC(NC(=O)C1CN(S(=O)(=O)c2cccc(OC(F)(F)F)c2)C1)C(=O)O (racemic) [Example 8, 3-(5-(5,6,7,8-tetrahydro-1,8-naphthyridin-2-yl)pentanamido)-2-(1-(3-(trifluoromethoxy)benzenesulfonyl)azetidine-3-carboxamido)propanoic acid]
19 | < 250 nM | Cc1cc(Cl)cc(S(=O)(=O)N2CC(C(=O)NC(CNC(=O)CCCCc3ccc4c(n3)NCCC4)C(=O)O)C2)c1 (racemic) [Example 13, 2-(1-(3-chloro-5-methylbenzenesulfonyl)azetidine-3-carboxamido)-3-(5-(5,6,7,8-tetrahydro-1,8-naphthyridin-2-yl)pentanamido)propanoic acid]
20 | < 250 nM | Cc1cccc(S(=O)(=O)N2CC(C)(C(=O)NC(CNC(=O)CCCCc3ccc4c(n3)NCCC4)C(=O)O)C2)c1 (racemic) [Example 15, 2-(3-methyl-1-(3-methylbenzenesulfonyl)azetidine-3-carboxamido)-3-(5-(5,6,7,8-tetrahydro-1,8-naphthyridin-2-yl)pentanamido)propanoic acid]
21 | < 250 nM | CCC1(C(=O)NC(CNC(=O)CCCCc2ccc3c(n2)NCCC3)C(=O)O)CN(S(=O)(=O)c2cccc(C)c2)C1 (racemic) [Example 16, 2-(3-ethyl-1-(3-methylbenzenesulfonyl)azetidine-3-carboxamido)-3-(5-(5,6,7,8-tetrahydro-1,8-naphthyridin-2-yl)pentanamido)propanoic acid]
22 | < 250 nM | Cc1nc(S(=O)(=O)N2CC(C(=O)NC(CNC(=O)CCCCc3ccc4c(n3)NCCC4)C(=O)O)C2)cn1C (racemic) [Example 22, 2-(1-((1,2-dimethyl-1H-imidazol-4-yl)sulfonyl)azetidine-3-carboxamido)-3-(5-(5,6,7,8-tetrahydro-1,8-naphthyridin-2-yl)pentanamido)propanoic acid]
23 | < 250 nM | Cc1cc(C)cc(S(=O)(=O)N2CC(C(=O)N[C@@H](CNC(=O)CCCCc3ccc4c(n3)NCCC4)C(=O)O)C2)c1 [Example 24, (S)-2-(1-(3,5-Dimethylbenzenesulfonyl)azetidine-3-carboxamido)-3-(5-(5,6,7,8-tetrahydro-1,8-naphthyridin-2-yl)pentanamido)propanoic acid]
24 | < 250 nM | Cc1cc(Cl)cc(S(=O)(=O)N2CC(C(=O)N[C@@H](CNC(=O)CCCCc3ccc4c(n3)NCCC4)C(=O)O)C2)c1 [Example 25, (S)-2-(1-(3-Chloro-5-methylbenzenesulfonyl)azetidine-3-carboxamido)-3-(5-(5,6,7,8-tetrahydro-1,8-naphthyridin-2-yl)pentanamido)propanoic acid]
25 | < 250 nM | CCc1cccc(S(=O)(=O)N2CC(C(=O)N[C@@H](CNC(=O)CCCCc3ccc4c(n3)NCCC4)C(=O)O)C2)c1 [Example 26, (S)-2-(1-(3-Ethylbenzenesulfonyl)azetidine-3-carboxamido)-3-(5-(5,6,7,8-tetrahydro-1,8-naphthyridin-2-yl)pentanamido)propanoic acid]
26 | < 250 nM | O=C(CCCCc1ccc2c(n1)NCCC2)NC[C@H](NC(=O)C1CN(S(=O)(=O)c2cccc(Cl)c2)C1)C(=O)O [Example 27, (S)-2-(1-(3-Chlorobenzenesulfonyl)azetidine-3-carboxamido)-3-(5-(5,6,7,8-tetrahydro-1,8-naphthyridin-2-yl)pentanamido)propanoic acid]
27 | < 250 nM | COc1cccc(S(=O)(=O)N2CC(C(=O)N[C@@H](CNC(=O)CCCCc3ccc4c(n3)NCCC4)C(=O)O)C2)c1 [Example 28, (S)-2-(1-(3-Methoxybenzenesulfonyl)azetidine-3-carboxamido)-3-(5-(5,6,7,8-tetrahydro-1,8-naphthyridin-2-yl)pentanamido)propanoic acid]
